pIC50, pKi: −log10 of the molar value. Where a name gives a salt, the structure may show the parent alone. Read-outs that look alike come from different tables or passages of the source.
How the values were obtained:
AfChiA1 = AfChiA1 (Aspergillus fumigatus, UniProt Q873Y0); assay: biochemical; assay type: biochemical; details: for inhibition at 1000 µM: read-out: % inhibition at 1 mM
hCHT (human chitinase) = hCHT (human chitinase) (Homo sapiens, UniProt Q13231); assay: hCHT (human chitinase) inhibition; assay type: biochemical
hCHT (human chitinase), sequence (Q13231 22-466): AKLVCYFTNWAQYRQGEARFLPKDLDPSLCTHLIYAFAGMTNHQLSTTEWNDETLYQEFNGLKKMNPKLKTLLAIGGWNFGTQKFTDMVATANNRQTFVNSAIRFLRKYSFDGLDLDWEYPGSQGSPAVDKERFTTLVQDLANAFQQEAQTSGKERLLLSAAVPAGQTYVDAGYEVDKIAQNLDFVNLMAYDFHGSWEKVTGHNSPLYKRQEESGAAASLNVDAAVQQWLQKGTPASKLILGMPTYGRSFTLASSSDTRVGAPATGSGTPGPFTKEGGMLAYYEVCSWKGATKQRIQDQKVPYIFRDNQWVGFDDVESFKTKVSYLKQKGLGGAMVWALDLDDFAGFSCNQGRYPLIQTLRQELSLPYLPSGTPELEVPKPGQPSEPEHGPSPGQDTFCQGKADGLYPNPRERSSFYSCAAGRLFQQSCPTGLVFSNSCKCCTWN

hevamine = molecular target: hevamine; set-up: method as in PMID 10922481; details: read-out: Ki against hevamine; cited from earlier work
[1] = human chitinase, read-out: hCHT IC50
[2] = Table 3, 4-parameter logistic fit

AfChiA1, sequence (Q873Y0 29-335): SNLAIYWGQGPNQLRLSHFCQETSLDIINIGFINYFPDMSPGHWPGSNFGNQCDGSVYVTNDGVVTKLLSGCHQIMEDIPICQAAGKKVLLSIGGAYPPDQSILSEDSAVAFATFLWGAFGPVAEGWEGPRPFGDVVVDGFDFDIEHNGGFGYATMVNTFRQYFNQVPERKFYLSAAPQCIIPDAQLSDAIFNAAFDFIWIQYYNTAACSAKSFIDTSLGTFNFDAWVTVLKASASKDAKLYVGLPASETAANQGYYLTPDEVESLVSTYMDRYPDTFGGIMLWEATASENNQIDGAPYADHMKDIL

Which melting point does the source give for CC(=O)Nc1nncs1 (as salt: salt) [Compound 7, 5-acetamido-1,3,4-thiadiazole] here?
Its melting point is 276 to 277 °C.

Which Hill slope (AfChiA1) does the source give for Cn1c(=O)c2[nH]c(Cl)nc2n(C)c1=O [8-Chloro-theophylline, 8-chlorotheophylline, reference compound] here?
Its Hill slope is 1.0.

And the pIC50 (hCHT (human chitinase); [1])?
Its pIC50 is under 2.60.

What does the source list for CC(=O)N[C@H]1[C@H](O[C@H]2[C@@H](O)[C@@H](NC(C)=O)[C@H](O[C@H]3[C@H](O)[C@H]4N=C(N(C)C)O[C@H]4[C@@H]3CO)O[C@@H]2CO)O[C@H](CO)[C@@H](O)[C@H]1O [Allosamidin, reference compound]?
Hill slope (AfChiA1; Fig. 1, triplicate, four-parameter logistic fit): 0.9; pKi (hevamine): 5.51

With CC(=O)Nc1nnc(S(N)(=O)=O)s1 [Compound 1, acetazolamide] as the molecule, how does the pIC50 (hCHT (human chitinase); [1]) read?
Its pIC50 is under 3.00.

For CCC(=O)Nc1nnc(S(N)(=O)=O)s1 [Compound 2, 5-propylamido-2-sulfamoyl-1,3,4-thiadiazole], which Hill slope (AfChiA1) is on record?
The Hill slope was 0.71.

What about the “inhibitory activity against AfChiA1 (in words)” value (shortened to “inhibitory activity”) (AfChiA1) of the same molecule?
The value was “reduction in activity”.

What about the inhibition at 1000 µM (AfChiA1) of the same molecule?
The inhibition at 1000 µM was 76%.

Which Hill slope (AfChiA1; [2]) does the source give for NS(=O)(=O)c1nnc(NC(=O)c2ccccc2)s1 [Compound 5, 5-benzylamido-2-sulfamoyl-1,3,4-thiadiazole] here?
The Hill slope was 0.5.

And the inhibition at 1000 µM (AfChiA1)?
The inhibition at 1000 µM was 51%.

Which “inhibitory activity” value (AfChiA1) does the source give for Nc1nnc(S(N)(=O)=O)s1 [Compound 6, 5-amino-2-sulfamoyl-1,3,4-thiadiazole monohydrochloride] here?
Its value is “abolishes inhibitory activity”.

For CC(=O)Nc1nncs1 [Compound 7, 5-acetamido-1,3,4-thiadiazole], which “inhibitory activity” value (AfChiA1) is on record?
Its value is “abrogate activity”.

For CC(=O)Nc1nnc(C)s1 [Compound 8], which “inhibitory activity” value (AfChiA1) is on record?
Its value is “abrogate activity”.

For CC(=O)Nc1nnc(S)s1 [Compound 9, 5-Acetamido-2-thiol-1,3,4-thiadiazole], which Hill slope (AfChiA1; [2]) is on record?
The Hill slope was 1.1.

With CC(=O)Nc1nnc(-c2ccccc2)s1 [Compound 10] as the molecule, how does the Hill slope (AfChiA1; [2]) read?
Its Hill slope is 0.5.

Which Hill slope (AfChiA1; [2]) does the source give for CC(=O)Nc1nnc(C(F)(F)F)s1 [Compound 11] here?
Its Hill slope is 1.1.

With CC(=O)Nc1nnc(Br)s1 [Compound 12] as the molecule, how does the Hill slope (AfChiA1; [2]) read?
The Hill slope was 0.7.

Which inhibition at 1000 µM (AfChiA1) does the source give for COc1cccc(CSc2nnc(NC(C)=O)s2)c1 [Compound 14] here?
The inhibition at 1000 µM was 38%.

For O=C(Nc1nnc(-c2ccccc2)s1)C(F)(F)F [Compound 15], which Hill slope (AfChiA1) is on record?
Its Hill slope is 1.2.

What about the inhibition at 1000 µM (AfChiA1) of the same molecule?
Its inhibition at 1000 µM is 85%.

With O=C(Nc1nnc(N2CCN(c3cccc(Cl)c3)CC2)s1)C(F)(F)F [Compound 17] as the molecule, how does the inhibition at 1000 µM (AfChiA1) read?
The inhibition at 1000 µM was 30%.

Which “inhibitory activity” value (AfChiA1) does the source give for CC(C)Cc1nnc(NC(=O)CCl)s1 [Compound 20] here?
The value was “reduction in activity”.

For O=C(CCl)Nc1nnc(C(F)(F)F)s1 [Compound 21], which “inhibitory activity” value (AfChiA1) is on record?
Its value is “reduction in activity”.

Which “inhibitory activity” value (AfChiA1) does the source give for c1coc(CNc2ncnc3[nH]cnc23)c1 [Kinetin, reference compound] here?
The value was “failed to show any discernable effect”.

And the pIC50 (hCHT (human chitinase))?
The pIC50 was under 3.00.
